Results from ChEMBL document CHEMBL1201862, “PubChem BioAssay data set” (2004).
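Method: 48-hour compound exposure of cells in 96-well plates, five concentrations, linear interpolation of endpoints. The concentration for 50% growth inhibition is given as GI50.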 Calls of active or inactive are those of the source. Cut-off read from the data, not from the text of the source: active = GI50 up to about 1.1 µM and inactive = higher.

Legend:
Test in all cases: inhibition of tumour cell growth, NCI panel, 48 h
SNB-75 = tested on: SNB-75
HOP-92 = tested on: HOP-92
SNB-19 = tested on: SNB-19
A498 = tested on: A498
OVCAR-5 = tested on: OVCAR-5
MCF7 = tested on: MCF7
OVCAR-3 = tested on: OVCAR-3
SR = tested on: SR
MDA-N = tested on: MDA-N
Hs-578T = tested on: Hs-578T
MDA-MB-435 = tested on: MDA-MB-435
OVCAR-4 = tested on: OVCAR-4
SK-MEL-2 = tested on: SK-MEL-2
U-251 = tested on: U-251
EKVX = tested on: EKVX
SK-MEL-5 = tested on: SK-MEL-5
SW-620 = tested on: SW-620
COLO 205 = tested on: COLO 205
TK-10 = tested on: TK-10
786-0 = tested on: 786-0

SMILES | GI50 (SNB-75) | GI50 (HOP-92) | GI50 (SNB-19) | GI50 (A498) | GI50 (OVCAR-5) | GI50 (MCF7) | GI50 (OVCAR-3) | GI50 (SR) | GI50 (MDA-N) | GI50 (Hs-578T) | GI50 (MDA-MB-435) | GI50 (OVCAR-4) | GI50 (SK-MEL-2) | GI50 (U-251) | GI50 (EKVX) | GI50 (SK-MEL-5) | GI50 (SW-620) | GI50 (COLO 205) | GI50 (TK-10) | GI50 (786-0)
O=C(NCCc1n[nH]c2c1C(=O)C=C(Nc1ccccc1)C2=O)OCc1ccccc1 | > 100 µM (inactive) | > 100 µM (inactive) | > 100 µM (inactive) | > 100 µM (inactive) | > 100 µM (inactive) | > 100 µM (inactive) | > 100 µM (inactive) | > 100 µM (inactive) | > 100 µM (inactive) | > 100 µM (inactive) | > 100 µM (inactive) | 66.4 µM (inactive) | > 100 µM (inactive) | > 100 µM (inactive) | > 100 µM (inactive) | > 100 µM (inactive) | > 100 µM (inactive) | > 100 µM (inactive) | > 100 µM (inactive) | 47.1 µM (inactive)
Cc1cc(S(=O)(=O)Nc2nnc3cc(C(F)(F)F)cc(C)n23)c(S)cc1Cl | > 71.1 µM (inactive) | > 76.9 µM (inactive) | 27.5 µM (inactive) | 18.9 µM (inactive) | > 84.9 µM (inactive) | > 31.6 µM (inactive) | 64.1 µM (inactive) | > 100 µM (inactive) | > 100 µM (inactive) | > 72.4 µM (inactive) | > 65.8 µM (inactive) | > 100 µM (inactive) | 30.7 µM (inactive) | 29 µM (inactive) | > 100 µM (inactive) | 64.4 µM (inactive) | > 100 µM (inactive) | > 100 µM (inactive) | > 100 µM (inactive) | > 80.5 µM (inactive)
COc1c(O)c2ccccc2c2cc(O)ccc12 | 8.17 µM (inactive) | 10.6 µM (inactive) | 13.6 µM (inactive) | 8.45 µM (inactive) | 13.4 µM (inactive) | 2.39 µM (inactive) | 8.81 µM (inactive) | 12.4 µM (inactive) | 1.08 µM (active) | 17.4 µM (inactive) | 1 µM (active) | 6.56 µM (inactive) | 4.79 µM (inactive) | 5.22 µM (inactive) | 18.1 µM (inactive) | 2.17 µM (inactive) | 3.18 µM (inactive) | 16 µM (inactive) | 25.4 µM (inactive) | 12.2 µM (inactive)
CN(C)c1ccc2nc3c(C(=O)O)cc(O)c(O)c3[o+]c2c1 | 21.5 µM (inactive) | 67 µM (inactive) | 28.7 µM (inactive) | > 100 µM (inactive) | 65.3 µM (inactive) | 21.1 µM (inactive) | 13.3 µM (inactive) | 17.5 µM (inactive) | 23.1 µM (inactive) | 68.4 µM (inactive) | 21.2 µM (inactive) | 29 µM (inactive) | 16.3 µM (inactive) | 29.7 µM (inactive) | 26.4 µM (inactive) | 15.3 µM (inactive) | 31 µM (inactive) | 24.7 µM (inactive) | 21.8 µM (inactive) | 29.1 µM (inactive)
COc1cc2c(c(OC)c1OC)C(=O)c1c(O)cc(C)c(OC)c1C2=O | > 100 µM (inactive) | > 100 µM (inactive) | 77.1 µM (inactive) | > 100 µM (inactive) | > 100 µM (inactive) | > 100 µM (inactive) | > 100 µM (inactive) | > 100 µM (inactive) | > 100 µM (inactive) | 15.6 µM (inactive) | 91.8 µM (inactive) | > 100 µM (inactive) | 88.1 µM (inactive) | 94 µM (inactive) | 65 µM (inactive) | 39.4 µM (inactive) | > 100 µM (inactive) | > 100 µM (inactive) | 27.2 µM (inactive) | 78.3 µM (inactive)
CC(C)C1OC(/C=C/c2ccccc2)OCC1(C)C (stereo not given) | 26.9 µM (inactive) | 17.9 µM (inactive) | 41.4 µM (inactive) | 24 µM (inactive) | 44.5 µM (inactive) | 31.8 µM (inactive) | 20.4 µM (inactive) | 30.1 µM (inactive) | 36.3 µM (inactive) | 22.8 µM (inactive) | 33.7 µM (inactive) | 33.6 µM (inactive) | 18.2 µM (inactive) | 24.9 µM (inactive) | 27.5 µM (inactive) | 17.7 µM (inactive) | 30.7 µM (inactive) | 16.6 µM (inactive) | 35.1 µM (inactive) | 37.1 µM (inactive)
Cc1c(C=C(C#N)C#N)c(=O)n(C)c(=O)n1C | > 100 µM (inactive) | > 100 µM (inactive) | > 100 µM (inactive) | > 100 µM (inactive) | > 100 µM (inactive) | > 100 µM (inactive) | > 100 µM (inactive) | 32.9 µM (inactive) | > 100 µM (inactive) | > 100 µM (inactive) | > 100 µM (inactive) | > 100 µM (inactive) | > 100 µM (inactive) | > 100 µM (inactive) | 81.5 µM (inactive) | > 100 µM (inactive) | > 100 µM (inactive) | > 100 µM (inactive) | > 100 µM (inactive) | > 100 µM (inactive)
CN(C)CCCc1c[nH]c2ccccc12 | > 100 µM (inactive) | > 100 µM (inactive) | > 100 µM (inactive) | > 100 µM (inactive) | > 100 µM (inactive) | > 100 µM (inactive) | > 100 µM (inactive) | > 100 µM (inactive) | > 100 µM (inactive) | > 100 µM (inactive) | > 100 µM (inactive) | > 100 µM (inactive) | > 100 µM (inactive) | > 100 µM (inactive) | > 100 µM (inactive) | > 100 µM (inactive) | > 100 µM (inactive) | > 100 µM (inactive) | > 100 µM (inactive) | > 100 µM (inactive)
CN(C(=O)Nc1ccc(Cl)c(Cl)c1)C1CCCC[C@@H]1N1CCCC1 (stereo not given in full) | 40.2 µM (inactive) | 34.4 µM (inactive) | 66.7 µM (inactive) | 24.2 µM (inactive) | 32.4 µM (inactive) | 33.6 µM (inactive) | 76.6 µM (inactive) | 21 µM (inactive) | 34 µM (inactive) | 33.7 µM (inactive) | 33 µM (inactive) | 41.9 µM (inactive) | 38.3 µM (inactive) | 53.7 µM (inactive) | 47.5 µM (inactive) | 16.3 µM (inactive) | 63.7 µM (inactive) | 18.1 µM (inactive) | 33.3 µM (inactive) | 48.6 µM (inactive)
CCn1c(=O)c2cn[nH]c2n(C)c1=O | > 100 µM (inactive) | > 100 µM (inactive) | > 100 µM (inactive) | > 100 µM (inactive) | > 100 µM (inactive) | > 100 µM (inactive) | > 100 µM (inactive) | > 100 µM (inactive) | > 100 µM (inactive) | > 100 µM (inactive) | > 100 µM (inactive) | > 100 µM (inactive) | > 100 µM (inactive) | > 100 µM (inactive) | > 100 µM (inactive) | > 100 µM (inactive) | > 100 µM (inactive) | > 100 µM (inactive) | > 100 µM (inactive) | > 100 µM (inactive)
